Laboratory results as given in ChEMBL document CHEMBL5321209, “Design, synthesis of novel benzimidazole derivatives as ENL inhibitors suppressing leukemia cells viability via downregulating the expression of MYC” (Eur J Med Chem, 2023).

Experiments:
Protein ENL [1] = molecular target: T1, Protein ENL (Homo sapiens, UniProt Q03111); experiment: Inhibition of C-terminal ENL YEATS domain (unknown origin) (M1 to A148 residues) using biotinylated peptide as substrate by alpha screen assay
T1 sequence (Q03111 whole entry): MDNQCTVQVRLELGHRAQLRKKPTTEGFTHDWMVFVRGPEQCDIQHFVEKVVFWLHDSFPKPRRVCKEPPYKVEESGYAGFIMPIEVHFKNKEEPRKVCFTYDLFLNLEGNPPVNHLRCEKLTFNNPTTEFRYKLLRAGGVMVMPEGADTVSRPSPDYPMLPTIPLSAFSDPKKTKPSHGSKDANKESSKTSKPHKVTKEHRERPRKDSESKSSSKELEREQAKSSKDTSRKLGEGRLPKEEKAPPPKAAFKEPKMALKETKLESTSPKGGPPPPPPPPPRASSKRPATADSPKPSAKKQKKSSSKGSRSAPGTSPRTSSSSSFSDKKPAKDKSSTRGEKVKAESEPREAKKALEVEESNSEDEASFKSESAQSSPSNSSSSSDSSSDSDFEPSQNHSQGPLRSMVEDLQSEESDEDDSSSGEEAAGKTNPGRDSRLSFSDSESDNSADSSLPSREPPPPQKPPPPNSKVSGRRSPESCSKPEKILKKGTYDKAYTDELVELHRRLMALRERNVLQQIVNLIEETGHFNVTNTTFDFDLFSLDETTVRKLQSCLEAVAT

Protein ENL [2] = molecular target: T1, Protein ENL; experiment: Binding affinity to C-terminal ENL YEATS domain (unknown origin) (M1 to A148 residues) assessed as dissociation constant by ITC assay
Protein ENL [3] = molecular target: T1, Protein ENL; experiment: Inhibition of C-terminal 6xHis-tagged ENL YEATS domain (1 to 148 residues) (unknown origin) expressed in Escherichia coli BL21(DE3) cells using biotin-H3K27ace as substrate incubated for 45 mins by alpha screen assay
[4] = molecular target: T2, Protein ENL (Homo sapiens) (UniProt Q03111); details: dose 333.0 nM, time 45.0 min
T2 sequence (whole entry): T1 sequence (Q03111 whole entry)

[5] = molecular target: T2, Protein ENL (Homo sapiens); details: dose 111.0 nM, time 45.0 min
[6] = Tmax in BALB/c mouse at 30 mg/kg, po measured after 0.5 to 24 hrs by LC-MS/MS assay; type: ADME, organism-based; details: in vivo, time 0.5-24 hrs
[7] = Cmax in BALB/c mouse at 30 mg/kg, po measured after 0.5 to 24 hrs by LC-MS/MS assay; type: ADME, organism-based; parameters: dose 30 mg/kg, time 0.5-24 hrs, route po; details: in vivo
[8] = Half life in BALB/c mouse at 30 mg/kg, po measured after 0.5 to 24 hrs by LC-MS/MS assay; type: ADME, organism-based; details: in vivo, time 0.5-24 hrs
[9] = AUC (0 to t) in BALB/c mouse at 30 mg/kg, po measured after 0.5 to 24 hrs by LC-MS/MS assay; type: ADME, organism-based; parameters: dose 30 mg/kg, time 0.5-24 hrs, route po; details: in vivo
[10] = AUC (0 to infinity) in BALB/c mouse at 30 mg/kg, po measured after 0.5 to 24 hrs by LC-MS/MS assay; type: ADME, organism-based; parameters: time lower 0.5 hrs, dose 30 mg/kg, time upper 24 hrs, route po; details: in vivo
[11] = MRT (0 to infinity) in BALB/c mouse at 30 mg/kg, po measured after 0.5 to 24 hrs by LC-MS/MS assay; type: ADME, organism-based; details: in vivo, time 0.5-24 hrs
MOLM-13 [12] = experiment: Antiproliferative activity against human MOLM-13 cells assessed as inhibition of cell growth measured after 72 hrs by Cell Titer-Glo luminescent assay; type: functional, cell-based; details: MOLM-13, 72 h
[13] = molecular target: T2, Protein ENL (Homo sapiens); details: dose 50.0 µM
[14] = molecular target: T2, Protein ENL (Homo sapiens); details: dose 25.0 µM
[15] = molecular target: T2, Protein ENL (Homo sapiens); details: dose 12.5 µM
Description: Binding affinity to C-terminal 6xHis-tagged ENL YEATS domain (1 to 148 residues) (unknown origin) expressed in Escherichia coli BL21(DE3) cells assessed as thermal stability by measuring change in melting temperature at 12.5 uM by SYPRO dye-based thermal shift assay

[16] = molecular target: T2, Protein ENL (Homo sapiens); details: dose 6.3 µM
Description: Binding affinity to C-terminal 6xHis-tagged ENL YEATS domain (1 to 148 residues) (unknown origin) expressed in Escherichia coli BL21(DE3) cells assessed as thermal stability by measuring change in melting temperature at 6.3 uM by SYPRO dye-based thermal shift assay

MV4-11 = experiment: cells; details: Homo sapiens, MV4-11, 72 h
Description: Antiproliferative activity against human MV4-11 cells assessed as inhibition of cell growth measured after 72 hrs by Cell Titer-Glo luminescent assay

MOLM-13 [17] = experiment: Potency index, ratio of SGC-iMLLT IC50 to test compound IC50 for antiproliferative activity against human MOLM-13 cells; type: functional
Protein ENL [18] = molecular target: T1, Protein ENL; experiment: Binding affinity to ENL YEATS domain (unknown origin) assessed as dissociation constant by ITC assay
Protein ENL [19] = molecular target: T1, Protein ENL; experiment: Inhibition of recombinantC-terminal 6xHis-tagged ENL YEATS domain (1 to 148 residues) (unknown origin) expressed in Escherichia coli BL21(DE3) cells using H3(13-32)K27cr as substrate by FRET assay
Protein ENL [20] = molecular target: T1, Protein ENL; experiment: Binding affinity toC-terminal 6xHis-tagged ENL YEATS domain (1 to 148 residues) (unknown origin) assessed as dissociation constant by BLI assay

IC50 (Protein ENL [3]) [nM] | inhibition [4] [%] | inhibition [5] [%] | SMILES | other results
– | – | – | COC(=O)c1ccc(C(=O)Nc2ccc3[nH]c(CN4CCCCC4)nc3c2)cc1 | IC50 (Protein ENL [1]): 1600 nM; Kd (Protein ENL [2]): 754 nM
72.2 | 96.5 | 85.4 | C[C@H]1CCCN1Cc1nc2cc(NC(=O)c3ccc4c5ccccc5n(C)c4c3)ccc2[nH]1 | –
– | 99.7 | 99.8 | C[C@H]1CCCN1Cc1nc2cc(NC(=O)c3ccc4c(cnn4C)c3)ccc2[nH]1 | Tmax [6]: 30 min; Cmax [7]: 33.6 ng/mL; half-life [8]: 30 min; AUC(0-t) [9]: 59.8 ng·h/mL; AUC(0-inf) [10]: 61 ng·h/mL; MRT inf [11]: 60 min; IC50 (MOLM-13 [12]): 74700 nM; ΔTm [13]: 4.3 °C; ΔTm [14]: 3.1 °C; ΔTm [15]: 2.2 °C; ΔTm [16]: 1.4 °C; IC50 (MV4-11): 35000 nM
46 | 97.8 | 67.6 | C[C@H]1CCCN1Cc1nc2cc(NC(=O)c3ccc4c(cnn4CCNC(=O)Nc4cccc(F)c4)c3)ccc2[nH]1 | –
70.2 | 96.1 | 51 | C[C@H]1CCCN1Cc1nc2cc(NC(=O)c3ccc4nn(C5CCCC5)cc4c3)ccc2[nH]1 | –
19.2 | 99 | 86.2 | C[C@H]1CCCN1Cc1nc2cc(NC(=O)c3ccc4c(cnn4CCNC(=O)c4ccccc4)c3)ccc2[nH]1 | –
37.9 | 99.1 | 56 | C[C@H]1CCCN1Cc1nc2cc(NC(=O)c3ccc4nn(CCNC(=O)OC(C)(C)C)cc4c3)ccc2[nH]1 | –
267 | 84.5 | 57 | Cc1nnc2ccc(C(=O)Nc3ccc4[nH]c(CN5CCC[C@@H]5C)nc4c3)cn12 | –
10.7 | 99.9 | 99.1 | Cc1noc2cc(C(=O)Nc3ccc4[nH]c(CN5CCC[C@@H]5C)nc4c3)ccc12 | IC50 (MOLM-13 [12]): 37900 nM; Ratio IC50 (MOLM-13 [17]): 2; ΔTm [13]: 4.9 °C; ΔTm [14]: 3.9 °C; ΔTm [15]: 2.8 °C; ΔTm [16]: 1.8 °C; IC50 (MV4-11): 51400 nM
– | – | – | C[C@@H]1NC(=O)[C@H]([C@H](C)O)NC(=O)[C@@H](NC(=O)OCc2ccccc2)CCCCNC(=N)NCCC[C@H](C(=O)N[C@@H](CCCCNC(=O)c2cnco2)C(N)=O)NC1=O | Kd (Protein ENL [18]): 14100 nM
48.8 | 99.3 | 87.3 | Cc1noc2ccc(C(=O)Nc3ccc4[nH]c(CN5CCC[C@@H]5C)nc4c3)cc12 | –
17 | 100 | 98 | CCCCn1ncc2cc(C(=O)Nc3ccc4[nH]c(CN5CCC[C@@H]5C)nc4c3)ccc21 | –
– | – | – | O=C(/C=C/c1ccc(-n2ccnc2)cc1)N1CCN(C(=O)c2ccco2)CC1 | IC50 (Protein ENL [19]): 19000 nM; Kd (Protein ENL [20]): 14000 nM
36.7 | 99.7 | 82.4 | CCn1cc2cc(C(=O)Nc3ccc4[nH]c(CN5CCC[C@@H]5C)nc4c3)ccc2n1 | –
